Measurements reported in patent US8242118B2, “Arylsulfonamide derivatives for use as CCR3 antagonists in the treatment of inflammatory and immunological disorders” (Axikin Pharmaceuticals Inc., priority 2001, dated 2012).
Counter-ions that a name gives are not always drawn.

Target: T1, Human CCR3 (Homo sapiens, UniProt P51677)
T1 construct: The cloned CCR3 cDNA was constructed with pcDNA3 vector and transfected into a IC562 cell line; expressed in transfected cells
T1 sequence (P51677 1-355): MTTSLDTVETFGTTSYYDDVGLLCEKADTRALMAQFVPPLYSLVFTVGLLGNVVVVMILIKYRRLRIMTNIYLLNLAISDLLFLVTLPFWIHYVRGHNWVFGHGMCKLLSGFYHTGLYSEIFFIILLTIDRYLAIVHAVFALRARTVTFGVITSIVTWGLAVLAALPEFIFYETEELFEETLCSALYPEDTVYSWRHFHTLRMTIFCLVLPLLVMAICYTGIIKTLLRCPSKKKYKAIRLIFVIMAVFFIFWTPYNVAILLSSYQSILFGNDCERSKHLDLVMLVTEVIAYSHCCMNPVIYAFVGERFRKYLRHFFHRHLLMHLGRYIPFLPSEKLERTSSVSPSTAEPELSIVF
Experiment: Calcium mobilization assay, eotaxin-stimulated
Format: cell-based
Conditions: human CCR3-transformed K562 cells, 10 nM eotaxin; compounds of about 40 to 90% purity; read-out: Activity grade Ca2+ (IC50 class)
Summary of the method: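 K562 cells transfected with human CCR3, pretreated 20–24 h with 5 mM sodium butyrate, loaded with Fluo-3AM. Compound added 10 min before stimulation with 10 nM (final) eotaxin; cytoplasmic calcium read over 60 s by FDSS, IC50 from inhibition curve.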

IC50, > 10000 nM:
Cc1cc(C)cc(Oc2ccc(N)cc2S(=O)(=O)N2CCN(C(=O)OC(C)(C)C)CC2)c1 [Example 5-1, tert-butyl 4-{[5-amino-2-(3,5-dimethyl-phenoxy)phenyl]sulfonyl}-1-piperazinecarboxylate]
Cc1cc(C)cc(Oc2ccc(O)cc2S(=O)(=O)N2CCNCC2)c1 [Example 6-1, 4-(3,5-dimethylphenoxy)-3-(1-piperazinylsulfonyl)phenol hydrochloride]
Cc1cc(C)cc(Oc2ccc(NC(=O)Cc3ccccc3)cc2S(=O)(=O)N2CCNCC2)c1 [Example 7-1, N-[4-(3,5-dimethylphenoxy)-3-(1-piperazinylsulfonyl)phenyl]-2-phenylacetamide]
Cc1cc(C)cc(Oc2cc3cc[nH]c3cc2S(=O)(=O)N2CCNCC2)c1 [Example 11-1, 5-(3,5-dimethylphenoxy)-6-(1-piperazinylsulfonyl)-1H-indole trifluoroacetate]

IC50, < 1000 nM:
Cc1cc(C)cc(Sc2ccc([N+](=O)[O-])cc2S(=O)(=O)N2CCNCC2)c1 [Example 2-1, 1-({2-[(3,5-dimethylphenyl)-sulfanyl]-5-nitrophenyl}sulfonyl)piperazine hydrochloride]
Cc1cc(C)cc(Oc2ccc(Cl)cc2S(=O)(=O)N2CCNCC2)c1 [Example 5-2, 1-{[5-chloro-2-(3,5-dimethylphenoxy)phenyl]sulfonyl}piperazine hydrochloride]
Cc1cc(C)cc(Oc2ccc(Br)cc2S(=O)(=O)N2CCNCC2)c1 [Example 8-1, 1-{[5-bromo-2-(3,5-dimethylphenoxy)phenyl]sulfonyl}piperazine hydrochloride]
Cc1cc(C)cc(Oc2ccc(C#N)cc2S(=O)(=O)N2CCNCC2)c1 [Example 9-1, 4-(3,5-dimethylphenoxy)-3-(1-piperazinylsulfonyl)benzonitrile hydrochloride]
N#Cc1ccc(Nc2cc(Cl)cc(Cl)c2)c(S(=O)(=O)N2CCNCC2)c1 [Example 20-1, 4-[(3,5-dichlorophenyl)amino]-3-(1-piperazinylsulfonyl)benzonitrile hydrochloride]
Cc1cc(C)cc(Oc2ccncc2S(=O)(=O)N2CCNCC2)c1 [Example 25-1, 1-{[4-(3,5-dimethylphenoxy)-3-pyridinyl]sulfonyl}piperazine hydrochloride]
CN(CCN1CCCCC1)S(=O)(=O)c1cc([N+](=O)[O-])ccc1Sc1cc(Cl)cc(Cl)c1 [Example 26-1, 2-[(3,5-dichlorophenyl)sulfanyl]-N-methyl-5-nitro-N-[2-(1-piperidinyl)ethyl]benzenesulfonamide]

IC50, 1000 to 10000 nM:
COc1ccc(Oc2cc(C)cc(C)c2)c(S(=O)(=O)N2CCNCC2)c1 [Example 6-2, hydrochloride]
CN(C)C(=O)c1ccc(Oc2cc(Cl)cc(Cl)c2)c(S(=O)(=O)N2CCNCC2)c1 [Example 10-1, 4-(3,5-dichlorophenoxy)-N,N-dimethyl-3-(1-piperazinylsulfonyl)benzamide hydrochloride]
